Results as given in article PMC12291119, “In Vitro Selection of Cyclized, Glycosylated Peptide Antigens That Tightly Bind HIV High Mannose Patch Antibodies” (ACS Central Science, 2025).
pKd: −log10 of the molar value. Ends that are not written are not given here.

Key:
[1] = molecular target: PGT122; experiment: Bead-based radiometric binding assay of ribosomally synthesized free peptides; conditions: free 3H-histidine-labelled peptide, no click glycosylation; 0, 100, 200, 400 nM antibody, 1 h room temperature, Protein G beads, LSC; Michaelis-Menten fit; preliminary
Method: The protocol used for cyclization while captured on resin was as follows: To 20 µL of crude translated peptide was added 80 µL of bind buffer with BME (50 mM Tris-HCl, pH 7.8, 300 mM NaCl, 5 mM BME) and 20 µL of HisPur™ Ni-NTA Resin (ThermoScientific). The mixture was tumbled at room temperature for 1 hour. Next, the mixture was spun down at 17,000 ×g, and the supernatant was carefully removed from the loosely-pelleted agarose.
The resin was washed three times with 160 µL of cyclization wash buffer with TCEP (50 mM Tris-HCl, pH 8.0, […]). To the resin was then added 160 µL of free peptide cyclization buffer (50 mM Tris-HCl, pH 8.0, 300 mM NaCl, 0.5 mM TCEP, 3.3 mM m-dibromoxylene, 33% (v/v) MeCN), and the mixture was covered in foil and tumbled at room temperature for 30 minutes. The supernatant was removed and 160 µL of cyclization wash buffer with BME (50 mM Tris-HCl, pH 8.0, 300 mM NaCl, 10 mM BME, 33% (v/v) MeCN) was added. The suspension was tumbled at room temperature for 10 minutes without aluminum foil to quench the reaction. The reaction was spun down, and the supernatant was removed. Next, the resin was resuspended in wash buffer (50 mM Tris-HCl, pH 7.8, 5 mM BME) and transferred to a 0.22 µm Ultrafree-MC Centrifugal Filter (MilliporeSigma). The tube was rinsed with 80 µL of wash buffer, and the rinse was added to the filter. The filter was then spun down at 10,000 ×g for 1 minute. The resin in the filter was washed twice with 160 µL of wash buffer. To elute the peptide, 20 µL 0.2% (v/v) TFA was added to the resin and allowed to sit at room temperature for 2 minutes before spinning down and collecting in a new tube. The elution step was carried out once more, with the eluent collected separately.
4. Radioactive Peptides for Bead-based Radiometric Binding Assay
For binding analysis, translation (50 µL) was carried out in the presence of PDF/MAP and 3H-histidine for radiolabeling. The crude peptides were purified by Ni-NTA agarose and, if the sequence contained two cysteine residues, was cyclized while captured on the Ni-NTA resin. The peptide eluents were combined and dialyzed as follows: To the combined eluents was added a solution of Triton X-100 in water for a final concentration of 0.1%.
Next, the peptides were dialyzed against 0.1% (v/v) Triton X-100 using a Slide-A-Lyzer™ MINI device (0.1 mL capacity, 3.5 kDa MWCO) (Thermo Scientific) at room temperature overnight. The dialyzed peptides were retrieved from the devices. The peptide solutions were concentrated to dryness by speedvac for the click reaction. […]
room temperature. While tumbling, Dynabeads™ Protein G (Invitrogen) were equilibrated with 1X selection buffer as follows: Steps were carried out using a multi-channel pipettor where possible. For each sequence, 8 µL of Protein G bead suspension was transferred to a 0.2 mL PCR tube in a strip. Next, 64 µL (8 bead vol.) of 1X selection buffer was added to the beads. The mixture was resuspended by gently vortexing, spun down briefly, and placed on a magnet for 1 minute. The supernatant was removed, and this wash was repeated two more times. The final supernatant was removed just prior to addition of the incubated peptide/antibody mixture. The mixture was allowed to tumble at room temperature for 30 minutes to capture antibodies and bound peptides. Next, the suspension was briefly spun down, placed on a magnet, and the supernatant was transferred to an individual 0.2 mL PCR tube. To wash the beads, 16 µL of 1X selection buffer was added, gently vortexed, spun down briefly, placed on a magnet for 1 minute, and the wash was transferred to the same PCR tube as the supernatant. This wash step was repeated twice more for a total of three washes, saved altogether with the supernatant as the “unbound” fraction. The beads were then resuspended in 50 µL of denaturing elute buffer. The suspension was heated at 95 °C for 5 minutes to denature […]

[2] = molecular target: PGT122; experiment: Bead-based radiometric binding assay of clones prepared as cDNA/mRNA-glycopeptide fusions; conditions: 2K CPM per sample, Protein G beads, LSC, preliminary
Method: antibodies, spun down briefly, placed on a magnet for 1 minute, and the eluent was transferred to an individual 0.2 mL PCR tube. The beads were washed with 50 µL of denaturing elute buffer, and the wash was placed into the same tube as the eluent. The combined eluent and wash represented the “bound” fraction. The beads were resuspended in 50 µL of denaturing elute buffer, vortexed, and directly placed into a vial with liquid scintillation cocktail for radioactivity measurements, though it was not included in calculations of fraction bound. Each of the tubes with the “unbound” and “bound” fractions were placed into vials for LSC. The tube in which the antibody and peptides were incubated were also measured by LSC, but not included in calculations of fraction bound. Fraction bound values for each antibody concentration after background adjustment were input into KaleidaGraph 4.1.1 for curve fitting to a […]
5. Clones Prepared as cDNA/mRNA-glycopeptide Fusions
Selected clones were also prepared as cDNA/mRNA-glycopeptide fusions for binding analysis. RNA (450-1000 pmol) was photo-crosslinked as described in Section IV.A.2 but with 10 µM transcribed RNA and 15 µM XL-PSO in 1X XL Buffer for annealing, and dilution to 100 µL for irradiation at 365 nm. XL-RNA was then purified by ethanol precipitation and 5% denaturing urea-PAGE with electroelution. Purified XL-RNA was translated in the presence of PDF/MAP and 3H-histidine for radiolabeling. Crude translation reactions were captured on Pierce™ Streptavidin UltraLink™ Resin (Thermo Scientific), subjected to reverse transcription, and cyclized as described for selection. Fusions were then washed and photo-eluted with 1X selection buffer instead of 0.2% (v/v) […]. […]
reverse transcription in preparation for photo-elution. Note: 2U3 was also cyclized despite having only one cysteine residue to better mimic its structure during selection. Fusions were then passed through 0.22 µm Ultrafree-MC Centrifugal Filters (MilliporeSigma), buffer exchanged by ethanol precipitation, and subjected to click reaction (5 µL) with Man9(GlcNAc)2-azide as described in Section II.A.8. Binding assays were performed analogously as with […]
as free peptides and cDNA/mRNA-glycopeptide fusions.
Name Click KD Ratio (No click : Click) KD Ratio (No click : Click) […]
a 2U3 was cyclized as a fusion but not as a free peptide.

[3] = test system: HIV pseudovirus panel; conditions: ref number not given, cited from earlier work
Description: We have sought to mimic HMP epitopes without using either the entire Env protein, which contains a plethora of “distracting” epitopes that easily elicit off-target antibodies; − or short glycopeptides directly derived from the Env sequence, which may not sufficiently recapitulate the HMP structure without the conformational support of the remaining Env protein. Aiming to design glycostructures that better mimic the glycan presentation in the HMP, we have pioneered various techniques for the directed evolution of DNA, , RNA, F-RNA, or peptide-supported , glycan clusters.

[4] = cDNA/mRNA-glycopeptide fusion, click-glycosylated with Man9(GlcNAc)2-azide
[5] = cDNA/mRNA-peptide fusion, no click glycosylation
[6] = diverse/representative HIV pseudovirus panel

| Substance | pKd [1] | pKd [2, 4] | pKd [2, 5] | breadth (fraction of HIV pseudovirus panel neutralized) [3, 6] | median IC50 [3, 6] | potency (EC50) ([3]; neutralization potency) |
| --- | --- | --- | --- | --- | --- | --- |
| AFIAYYFDLSQPNLHSPNFTLKIGDIREAQCMLTCDSAKPNPRVVPILALLI (also: sidechain bridge or staple (positions not given here)) [2B3c, ribosomally synthesized PGT122 selection clone, cyclized] | 5.35 | 6.85 | 7.00 |  |  |  |
| AHSLFNFQVRLKQLPLDANGAVIGDIRIAECMNHTYTPLTFYIYSNHPTDIQ [GB1, ribosomally synthesized gl-PGT121 selection clone] | 6.74 |  |  |  |  |  |
| AKTKTYLIRFHLDILPNDNLRSQKIRLIFGDKATVKGMITFLNDSELEWNFE [2U1, ribosomally synthesized PGT122 selection clone, tested with and without click glycosylation] |  | 7.53 | 7.08 |  |  |  |
| AKTRTPMNLSGKSNIRYFFTIDNSTMFEDLFMRFPRSKEYHIELEEFKDLIR [2U7] | 5.85 | 6.86 | 6.52 |  |  |  |
| ALNLYQIVEFTIDESNDIVQLQIGDIRTADCMSLNKECYNIIFFSWDNHGKN (also: sidechain bridge or staple (positions not given here)) [2B4c, ribosomally synthesized PGT122 selection clone, cyclized] | 6.80 | 6.81 | 7.35 |  |  |  |
| ANNFICIRNIGDIRSARCMNVSAGRYAPYREFYFDITYDDFNKNVNIVITPV (also: sidechain bridge or staple (positions not given here)) [2B8c, ribosomally synthesized PGT122 selection clone, cyclized] |  | 6.97 | 6.75 |  |  |  |
| ANPRIIFFELSIRNNSLKLLRWHDTQGIFHDSMTELSQHAELPRFKFHSNAA [GU1, ribosomally synthesized gl-PGT121 selection clone] | 6.81 |  |  |  |  |  |
| ANPSFSVQFIVDLIGPNVMRITLSNKPFATICPITEGESHISKRFNFQLTIS [2U3c, ribosomally synthesized PGT122 selection clone; cyclized as a fusion but not as a free peptide] |  | 6.35 | 6.55 |  |  |  |
| AQYIDWEIDINQVPNQMNLSKPTWKSDITINKVKWSFYININQASNENTDNI [2U6, ribosomally synthesized PGT122 selection clone] | 6.78 | 6.76 | 7.01 |  |  |  |
| ATLNIFSNFSIEPDSFYEIVLPIGDIRIAPCMSSFNRNGSTNNCYHFEINLF (also: sidechain bridge or staple (positions not given here)) [2B5c, ribosomally synthesized PGT122 selection clone, cyclized] | 6.67 | 7.07 | 6.50 |  |  |  |
| AYPVYLRLPIGDIRIASCMFGDEPNTWTRDELNDYFYTESYNPQPITITFKC (also: sidechain bridge or staple (positions not given here)) [2B2c, ribosomally synthesized PGT122 selection clone, cyclized] | 5.78 | 6.94 | 7.05 |  |  |  |
| AYSIHFVCDINETPTNTSKAIFSIKCDITTPESTTRQLMITKHYHFPPTGTR (also: sidechain bridge or staple (positions not given here)) [2U8c, ribosomally synthesized PGT122 selection clone, cyclized] |  | 7.32 | 6.76 |  |  |  |
| AYVISFSIDQPDLDRPNIIRISIGDIRSAKCMKLDTINFAYRDDSSEVCYEK (also: sidechain bridge or staple (positions not given here)) [2B7c, ribosomally synthesized PGT122 selection clone, cyclized] | 7.53 | 6.84 | 7.18 |  |  |  |
| PGT128: broad and very potent HIV bnAb binding the High Mannose Patch |  |  |  | 72% | 0.02 µg/mL | 0.02 µg/mL |
